Data taken from PMC12365235, “Molecular mechanisms of thiazide-like diuretics-mediated inhibition of the human Na-Cl cotransporter” (Nature Communications, 2025).

Biological target: T1, hNCC(N149A) (Homo sapiens, UniProt P55017, N149A)
T1 construct: expressed in transfected cells
T1 sequence (P55017 1-1021 N149A): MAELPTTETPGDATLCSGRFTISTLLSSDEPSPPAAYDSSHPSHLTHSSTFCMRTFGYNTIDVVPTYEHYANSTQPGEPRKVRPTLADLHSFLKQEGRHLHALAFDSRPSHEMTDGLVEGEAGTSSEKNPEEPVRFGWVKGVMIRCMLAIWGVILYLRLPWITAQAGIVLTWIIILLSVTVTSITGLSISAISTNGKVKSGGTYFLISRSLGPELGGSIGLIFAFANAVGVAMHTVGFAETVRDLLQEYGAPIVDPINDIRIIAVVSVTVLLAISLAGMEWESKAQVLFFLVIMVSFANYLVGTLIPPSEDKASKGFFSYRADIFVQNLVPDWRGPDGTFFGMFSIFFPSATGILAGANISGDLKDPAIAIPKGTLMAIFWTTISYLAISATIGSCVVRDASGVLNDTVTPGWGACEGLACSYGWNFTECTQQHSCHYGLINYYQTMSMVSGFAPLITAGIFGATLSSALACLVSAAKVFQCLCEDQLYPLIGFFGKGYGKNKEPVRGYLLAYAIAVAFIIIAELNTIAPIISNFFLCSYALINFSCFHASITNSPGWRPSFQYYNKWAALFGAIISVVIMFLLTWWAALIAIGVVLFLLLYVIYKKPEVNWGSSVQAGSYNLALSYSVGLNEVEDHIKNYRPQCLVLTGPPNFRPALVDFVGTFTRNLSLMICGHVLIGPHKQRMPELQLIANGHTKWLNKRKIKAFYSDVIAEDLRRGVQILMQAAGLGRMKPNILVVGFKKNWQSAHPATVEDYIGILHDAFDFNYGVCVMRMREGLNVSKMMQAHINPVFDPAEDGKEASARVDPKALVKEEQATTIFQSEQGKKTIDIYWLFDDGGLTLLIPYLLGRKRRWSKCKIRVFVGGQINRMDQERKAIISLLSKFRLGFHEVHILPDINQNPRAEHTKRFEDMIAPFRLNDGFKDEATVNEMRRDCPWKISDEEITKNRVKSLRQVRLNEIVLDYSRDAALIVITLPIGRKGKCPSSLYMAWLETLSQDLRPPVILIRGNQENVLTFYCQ
Test: 125I- uptake assay, hNCC(N149A) variant
Format: cell-based
Details: N149A substitution; for IC50: iodide uptake
Description: HEK293S cell lines, cultured in 293 Freestyle medium (Life Technologies; plus 10% fetal bovine serum), stably expressing hNCC and its variants were generated following published protocols. Cells were transfected using Lipofectamine 3000 (Invitrogen) with a pSBbi-RP-based plasmid containing hNCC or its variants and the SB100X vector. Puromycin (2 μg/mL; Gemini Bio-Products) was used for selection of stable cell lines.
To prepare for the uptake experiment, cells were plated at 0.5 × 10^6 cells/well in 24-well plates one day in advance. To activate NCC, cells were treated with a chloride-free hypotonic solution composed of 67.5 mM sodium-, 2.5 mM potassium-, 0.25 mM magnesium-, and 0.25 mM calcium-gluconate, as well as 7.5 mM HEPES pH 7.4 (buffered using Tris) at 37 °C for 10 min[72]. After the activation step, the experiments were carried out at room temperature. Ten minutes before the start of ^125I^− uptake, 70 μM Bumetanide (Thermo Scientific Chemicals) and 100 μM 4,4′-diisothiocyanatostilbene-2,2′-disulfonic acid (DIDS; Sigma) were added to suppress background iodide uptake activity. Indicated thiazide diuretics were also added to the indicated concentrations 10 min before the start of ^125I^− uptake. The original buffer was switched to an uptake buffer composed of 135 mM Na-gluconate, 5 mM K-gluconate, 1 mM Mg-gluconate, 1 mM Ca-gluconate, 70 μM bumetanide, 100 μM DIDS, 1 mM NaI, 0.25 μCi/ml Na^125I (American Radiolabeled Chemicals, Inc.), and 15 mM HEPES pH 7.4 (buffered using Tris), in the presence or absence of thiazide diuretics to initiate ^125I^− uptake. The ^125I^− uptake process lasted 1 h and was stopped by two rapid washes using ice-cold 110 mM MgCl2. Cells lysed using 1% sodium dodecyl sulfate (SDS) were analyzed by scintillation counting.
To calculate the fold change of the half-maximal inhibitory concentration (IC50) between hNCC(WT) and different hNCC variants, individual dose-response curves were normalized first using the smallest mean and the value of the lowest concentration as 0% and 100%, respectively. The normalized data were then fitted using the “EC50 shift” nonlinear regression in GraphPad Prism 10 with the shared EC50Control assigned to be the IC50 of hNCC(WT). The following constraints were used in the EC50 shift analysis. The EC50Control was set to be shared across all curves under analysis and constrained to be greater than 0. The EC50Ratio was constrained to be greater than 0. The bottom, top, and HillSlope were constrained to be 0, 100, and −1, respectively. For Fig. 1f, g and Supplementary Fig. 2d, GraphPad Prism 10 was used to perform curve fitting and IC50 calculation for normalized data using y = 100/(1 + (x/IC50)).

With `NS(=O)(=O)c1cc(C2(O)NC(=O)c3ccccc32)ccc1Cl` (stereo not shown) [chlorthalidone] the “fold less sensitive than hNCC(WT)” value was ~95 fold and the IC50 was 2.2 µM.
With `CC1Cc2ccccc2N1NC(=O)c1ccc(Cl)c(S(N)(=O)=O)c1` (stereo not shown) [indapamide] the “fold less sensitive than hNCC(WT)” value was “approximately 27 fold” and the IC50 was 0.34 µM.
